Consider two compounds from patent US20170119660A1, “PHARMACEUTICAL COMPOSITIONS FOR TRANSMUCOSAL DELIVERY” (Solubest Ltd, priority 2015, published 2017).

A short description of data set [1]: Dissolution test of cannabidiol compositions in FaSSIF. As to conditions: 200 ml FaSSIF, drug loading 20 mg. Type of data set: physicochemical. Also on record: unit not given here. Here is the method:
(§1) The liquid intermediates, containing the active compound(s) and the polymers, were prepared using different size glassware, magnetic plates, peristaltic pump and tubing. The spray-drying process was conducted using Mini Spray Dryer B-290 of Buchi Labortechnik AG. Tablet compression was performed with a Mini 8-D tablet press Dynamic Exim Co. Ltd. Granules preparation was performed with Dynamic Exim dry granulator. The dissolution test was performed in accordance with USP Dissolution Method <711> and FDA Dissolution Methods for Drug Products using the paddle apparatus Pharma Test model DT70 equipped with 1L and 250 ml vessels. The quantification was performed using HPLC, Dionex. Appropriate amount of prepared granules or tablets as well as control powders or tablets were dissolved in 250 ml of artificial saliva, at 37° C., with rotation speed of 75 rpm. Simulated saliva solution was prepared according to SS5 solution recipe reported in Marques et al, 2011, Dissolution Technologies, 18, 15-28. The tablets disintegration test was performed in accordance with USP Disintegration Method <701>.
Unformulated cannabidiol (CBD) and composition of the present invention (Example 13) were subjected to a dissolution test in 200 ml of Fasted State Simulating Intestinal Fluid (FaSSIF). The drug loading was 20 mg.

Data set [2] is described as follows: Dissolution test of powders and granules in simulated saliva. Type of data set: physicochemical. The settings on record: drug loading 10 mg/ml. The procedure:
as §1, with “The dissolution test was performed in accordance with USP Dissolution Method <711> and FDA Dissolution Methods for Drug Products using the paddle apparatus Pharma Test model DT70 equipped with 1L and 250 ml vessels.” left out, “<701>. […] The drug loading in the first set of experiments was 2.5 mg/ml.” for “<701>.”

In data set [3] the test system is EpiOral™ buccal tissues. The data set is described as follows: Franz diffusion cell permeability through human buccal tissue. Type of data set: in vitro ADME. As to conditions: 7.5 mg/ml in artificial saliva. Here is the method:
Permeability studies were performed as follows. The barrier membranes, EpiOral™ representing a highly differentiated, three-dimensional, cultured human buccal tissue equivalent were obtained from MatTek Corp (Ashland, Mass.). Samples were mounted in vertical Franz diffusion cells (PermeGear Inc., Bethlehem, Pa.). […] The fluid in each receptor compartment was maintained at 37±0.5° C. by using a thermostatic water pump (Freed Electric, Haifa, Israel) that circulated water through the jacket surrounding each main chamber. The biological membranes were initially left in the Franz cells for 1 h in order to facilitate their hydration before the experiment. After this period, a 500-μL aliquot of 7.5 mg/ml sumatriptan solution/dispersion in artificial saliva was deposited in each donor compartment. The donor compartment was covered with Parafilm® to prevent evaporation. Receptor solution samples of 300 μL were then collected at 3, 6, 9, 12, 20, 40 and 60 minutes and replaced with 300 μL phosphate buffer, placed on ice and stored at −20° C. until subjected to HPLC or LCMS analysis. Each permeation experiment was conducted as four replicate runs.
The permeability of unformulated sumatriptan base, of API (in the base form) released from the composition of the present invention (Example 3) and of the commercial formulation Imitrex® was tested using EpiOral™ buccal tissues as described in the Methods section. EpiOral™ buccal tissues consist of normal, human-derived epithelial cells that have been cultured to form multilayered, highly differentiated models of the human buccal phenotypes.

Regarding `C=C(C)[C@@H]1CCC(C)=C[C@H]1c1c(O)cc(CCCCC)cc1O` [Unformulated CBD, Cannabidiol], the Dissolution profile is recorded as 0 in data set [1] (Time 0); 1.7 in data set [1] (Time 10); 2.7 in data set [1] (Time 20); 3.8 in data set [1] (Time 30); 5.2 in data set [1] (Time 45); 6.3 in data set [1] (Time 60). The same compound registered a Dissolution profile in data set [1] (Time 90) of 8.2.

Consider `CNS(=O)(=O)Cc1ccc2[nH]cc(CCN(C)C)c2c1` [Unformulated sumatriptan, Sumatriptan base], for which the Drug released in data set [2] (5 min), in data set [2] (10 min) and in data set [2] (20 min) was 13% throughout. The “STP Permeability” value in data set [3] (time point 0 min) was 0.000 μg/cm^2; in data set [3] (time point 3 min), 0.330 μg/cm^2; in data set [3] (time point 6 min) it was 0.736 μg/cm^2; in data set [3] (time point 9 min), 0.964 μg/cm^2; in data set [3] (time point 12 min), 1.295 μg/cm^2; in data set [3] (time point 20 min), 2.671 μg/cm^2. Moreover, the “STP Permeability” value in data set [3] (time point 40 min) is listed as 6.938 μg/cm^2; in data set [3] (time point 60 min), 14.887 μg/cm^2.
